Data on two molecules can be found in PMC8213057, “Targeting ALK2: An Open Science Approach to Developing Therapeutics for the Treatment of Diffuse Intrinsic Pontine Glioma” (Journal of Medicinal Chemistry, 2020).

Several values for one entry are separate records, joined by “and”; a condition that tells them apart may be missing. Identical values can stand only once.

In experiment [1] the target is T1, CK1a1L (Homo sapiens, UniProt Q8N752).
T1 sequence (Q8N752 1-337): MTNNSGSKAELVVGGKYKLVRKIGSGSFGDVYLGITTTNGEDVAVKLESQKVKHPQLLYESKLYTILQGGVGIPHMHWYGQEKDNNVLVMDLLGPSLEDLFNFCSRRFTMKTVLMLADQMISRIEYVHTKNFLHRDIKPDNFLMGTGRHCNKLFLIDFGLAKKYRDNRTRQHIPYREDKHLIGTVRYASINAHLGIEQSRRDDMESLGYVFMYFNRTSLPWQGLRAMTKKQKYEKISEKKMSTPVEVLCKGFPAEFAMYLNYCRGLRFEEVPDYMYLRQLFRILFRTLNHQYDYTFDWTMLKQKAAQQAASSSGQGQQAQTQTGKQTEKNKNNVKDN
Particulars: 1 μM; Run 1, Run 2.

For experiment [2], the target named is T2, NEK11 (Homo sapiens, UniProt Q8NG66).
T2 sequence (Q8NG66 1-645): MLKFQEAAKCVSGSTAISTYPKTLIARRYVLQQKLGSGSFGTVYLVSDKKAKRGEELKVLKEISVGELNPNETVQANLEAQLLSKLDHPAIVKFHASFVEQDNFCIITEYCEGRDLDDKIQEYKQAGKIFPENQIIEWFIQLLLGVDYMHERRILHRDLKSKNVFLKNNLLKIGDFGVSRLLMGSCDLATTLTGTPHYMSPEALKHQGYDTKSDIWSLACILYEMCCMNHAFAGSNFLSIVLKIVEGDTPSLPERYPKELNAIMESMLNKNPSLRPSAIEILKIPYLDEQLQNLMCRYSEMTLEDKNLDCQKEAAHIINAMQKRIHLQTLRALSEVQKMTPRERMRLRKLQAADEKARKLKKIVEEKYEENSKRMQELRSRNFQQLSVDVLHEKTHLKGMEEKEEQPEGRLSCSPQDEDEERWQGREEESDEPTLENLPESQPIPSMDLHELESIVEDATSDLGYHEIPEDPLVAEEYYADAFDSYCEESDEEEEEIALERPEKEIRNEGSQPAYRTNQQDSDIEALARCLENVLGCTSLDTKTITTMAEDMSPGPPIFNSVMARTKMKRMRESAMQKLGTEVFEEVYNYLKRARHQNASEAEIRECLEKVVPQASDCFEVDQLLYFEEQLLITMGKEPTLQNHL
Particulars: 1 μM; Run 1, Run 2.

Experiment [3] deals with T3, HIPK4 (Homo sapiens, UniProt Q8NE63).
T3 sequence (Q8NE63 1-616): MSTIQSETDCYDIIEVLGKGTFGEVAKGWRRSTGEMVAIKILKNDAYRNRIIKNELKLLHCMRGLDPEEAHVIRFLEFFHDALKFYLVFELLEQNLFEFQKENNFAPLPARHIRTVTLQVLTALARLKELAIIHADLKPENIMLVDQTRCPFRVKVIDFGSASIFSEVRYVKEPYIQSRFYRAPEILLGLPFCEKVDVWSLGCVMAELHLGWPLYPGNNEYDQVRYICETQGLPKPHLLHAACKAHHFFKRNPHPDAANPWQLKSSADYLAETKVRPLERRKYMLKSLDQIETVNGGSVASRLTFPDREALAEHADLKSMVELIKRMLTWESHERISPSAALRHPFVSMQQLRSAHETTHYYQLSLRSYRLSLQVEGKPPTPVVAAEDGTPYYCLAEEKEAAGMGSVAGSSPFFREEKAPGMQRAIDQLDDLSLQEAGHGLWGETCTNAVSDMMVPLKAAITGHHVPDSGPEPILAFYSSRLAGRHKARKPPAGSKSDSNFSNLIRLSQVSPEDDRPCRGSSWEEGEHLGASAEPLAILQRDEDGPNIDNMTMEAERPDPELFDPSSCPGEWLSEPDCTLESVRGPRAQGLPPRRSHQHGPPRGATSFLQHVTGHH
Briefly: biochemical. Particulars: read-out: % enzyme activity, 1 μM; Run 1, Run 2.

Experiment [4] concerns the target IRR/INSRR (Homo sapiens, UniProt P14616). The experiment in a line: biochemical. Particulars: read-out: % enzyme activity, 1 μM; Run 1, Run 2.
Experiment [5] deals with T4, P38d/MAPK13 (Homo sapiens, UniProt O15264).
T4 sequence (O15264 1-365): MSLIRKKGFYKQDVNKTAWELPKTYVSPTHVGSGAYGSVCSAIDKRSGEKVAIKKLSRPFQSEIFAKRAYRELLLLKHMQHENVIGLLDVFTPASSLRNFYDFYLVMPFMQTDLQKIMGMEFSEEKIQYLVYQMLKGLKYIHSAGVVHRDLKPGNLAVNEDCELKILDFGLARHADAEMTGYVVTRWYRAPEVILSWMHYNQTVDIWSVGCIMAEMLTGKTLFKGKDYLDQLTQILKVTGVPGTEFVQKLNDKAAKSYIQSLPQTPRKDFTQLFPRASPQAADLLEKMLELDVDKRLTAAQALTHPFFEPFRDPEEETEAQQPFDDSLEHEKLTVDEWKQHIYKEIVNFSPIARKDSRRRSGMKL
The experiment in a line: biochemical. Conditions: read-out: % enzyme activity, 1 μM; Run 1, Run 2.

In experiment [6] the test system is ALK5/TGFBR1.
Experiment [7] concerns the target PKAcg (Homo sapiens, UniProt P22612). Conditions: 1 μM; Run 1, Run 2.
Experiment [8] deals with T5, PBK/TOPK (Homo sapiens, UniProt Q96KB5).
T5 sequence (Q96KB5 1-322): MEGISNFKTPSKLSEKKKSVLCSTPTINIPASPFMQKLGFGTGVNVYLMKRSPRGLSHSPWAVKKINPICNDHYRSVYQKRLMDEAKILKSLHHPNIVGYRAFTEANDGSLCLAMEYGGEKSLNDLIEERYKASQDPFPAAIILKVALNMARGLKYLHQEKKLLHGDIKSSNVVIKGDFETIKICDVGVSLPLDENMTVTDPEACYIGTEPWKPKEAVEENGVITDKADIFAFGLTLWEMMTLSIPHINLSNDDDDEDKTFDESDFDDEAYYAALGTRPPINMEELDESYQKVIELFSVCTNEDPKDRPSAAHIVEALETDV
The experiment in a line: biochemical. Conditions: read-out: % enzyme activity, 1 μM; Run 1, Run 2.

In experiment [9] the target is CDK1/cyclin E (Homo sapiens, UniProt P06493). Briefly: biochemical. Particulars: read-out: % enzyme activity, 1 μM; Run 1, Run 2.
Chain of CDK1/cyclin E (P24864 whole entry): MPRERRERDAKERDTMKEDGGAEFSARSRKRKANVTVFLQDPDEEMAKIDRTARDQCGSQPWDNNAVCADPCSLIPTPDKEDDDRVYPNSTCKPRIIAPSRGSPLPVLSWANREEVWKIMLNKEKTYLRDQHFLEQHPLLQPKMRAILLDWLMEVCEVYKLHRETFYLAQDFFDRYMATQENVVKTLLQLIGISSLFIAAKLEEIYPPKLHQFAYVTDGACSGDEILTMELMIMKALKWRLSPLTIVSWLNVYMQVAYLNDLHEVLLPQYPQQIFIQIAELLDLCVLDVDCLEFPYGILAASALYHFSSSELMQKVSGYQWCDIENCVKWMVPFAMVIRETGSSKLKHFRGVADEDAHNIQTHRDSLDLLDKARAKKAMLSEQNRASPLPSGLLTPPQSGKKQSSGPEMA
Chain of CDK1/cyclin E (P06493 whole entry): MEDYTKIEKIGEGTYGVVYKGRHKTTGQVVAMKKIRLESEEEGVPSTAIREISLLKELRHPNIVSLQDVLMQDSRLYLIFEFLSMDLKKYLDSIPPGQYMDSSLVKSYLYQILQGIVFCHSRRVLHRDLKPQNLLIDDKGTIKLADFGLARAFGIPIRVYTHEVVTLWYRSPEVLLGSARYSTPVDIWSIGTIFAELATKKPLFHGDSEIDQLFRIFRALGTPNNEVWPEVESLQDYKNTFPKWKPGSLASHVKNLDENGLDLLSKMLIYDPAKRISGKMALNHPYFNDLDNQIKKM

Chain of PKAcg (P22612 whole entry): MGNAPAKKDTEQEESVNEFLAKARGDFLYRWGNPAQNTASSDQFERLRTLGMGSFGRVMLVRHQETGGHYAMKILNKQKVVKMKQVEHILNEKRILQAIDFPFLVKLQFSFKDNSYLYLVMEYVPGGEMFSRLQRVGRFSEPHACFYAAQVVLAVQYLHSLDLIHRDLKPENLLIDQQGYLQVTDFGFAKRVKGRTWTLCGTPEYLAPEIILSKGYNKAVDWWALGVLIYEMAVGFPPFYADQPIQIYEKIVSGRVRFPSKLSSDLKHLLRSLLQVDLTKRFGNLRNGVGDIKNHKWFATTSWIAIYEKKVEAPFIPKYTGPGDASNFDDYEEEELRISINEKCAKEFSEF
Chain of IRR/INSRR (P14616 27-1297): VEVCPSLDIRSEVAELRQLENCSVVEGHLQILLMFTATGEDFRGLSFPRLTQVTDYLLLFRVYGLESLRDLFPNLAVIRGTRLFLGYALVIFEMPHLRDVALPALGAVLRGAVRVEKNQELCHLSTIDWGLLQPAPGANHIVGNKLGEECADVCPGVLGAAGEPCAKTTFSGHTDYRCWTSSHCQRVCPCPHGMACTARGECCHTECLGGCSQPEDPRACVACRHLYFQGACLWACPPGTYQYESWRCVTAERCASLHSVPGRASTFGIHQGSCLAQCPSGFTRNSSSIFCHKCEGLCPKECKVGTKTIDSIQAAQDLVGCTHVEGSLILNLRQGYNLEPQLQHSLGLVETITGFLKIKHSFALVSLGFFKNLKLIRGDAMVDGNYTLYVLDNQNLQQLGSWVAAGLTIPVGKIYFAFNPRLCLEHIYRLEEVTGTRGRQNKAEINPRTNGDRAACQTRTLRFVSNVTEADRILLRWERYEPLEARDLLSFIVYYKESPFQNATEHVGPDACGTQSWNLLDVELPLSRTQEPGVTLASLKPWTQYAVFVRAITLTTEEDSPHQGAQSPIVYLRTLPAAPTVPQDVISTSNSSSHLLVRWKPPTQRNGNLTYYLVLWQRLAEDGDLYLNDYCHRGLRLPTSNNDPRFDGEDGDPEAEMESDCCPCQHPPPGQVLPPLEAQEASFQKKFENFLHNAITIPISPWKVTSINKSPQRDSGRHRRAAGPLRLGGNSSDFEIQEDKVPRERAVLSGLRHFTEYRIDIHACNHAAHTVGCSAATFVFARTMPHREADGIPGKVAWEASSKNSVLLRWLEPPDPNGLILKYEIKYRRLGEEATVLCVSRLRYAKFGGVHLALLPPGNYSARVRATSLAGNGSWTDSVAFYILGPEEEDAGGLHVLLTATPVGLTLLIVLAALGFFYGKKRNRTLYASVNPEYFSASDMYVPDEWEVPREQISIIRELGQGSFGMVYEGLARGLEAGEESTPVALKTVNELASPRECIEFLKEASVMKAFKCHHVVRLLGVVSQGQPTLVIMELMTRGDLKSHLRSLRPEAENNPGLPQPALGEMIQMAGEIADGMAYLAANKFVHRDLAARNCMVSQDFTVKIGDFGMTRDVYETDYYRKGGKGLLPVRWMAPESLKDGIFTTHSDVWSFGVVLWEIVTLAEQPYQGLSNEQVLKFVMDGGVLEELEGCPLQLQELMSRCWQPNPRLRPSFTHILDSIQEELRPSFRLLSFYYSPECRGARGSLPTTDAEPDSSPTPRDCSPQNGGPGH

For the molecule `COc1cc(-c2cncc(-c3ccc(N4C[C@@H](C)N(C)[C@@H](C)C4)cc3)c2C)cc(F)c1C(N)=O` [Compound 26c, 2-Fluoro-6-methoxy-4-(4-methyl-5-(4-((3R,5S)-3,4,5-trimethylpiperazin-1-yl)phenyl)pyridin-3-yl)benzamide], the “% enzyme activity” value in [1] came to 99.15%; in experiment [2], 87.79%; in experiment [7] it was 98.97%. The remaining activity at 1 µM in [3] came to 101%; in experiment [4], 121%; in [5] it was 97.7%; in experiment [8], 103%; in [9] it was 92.4%. In experiment [6], the % enzyme activity at 1 μM is 97.2% and 96.6%.

Turning to `COc1cc(-c2cncc(-c3ccc(N4CCN(C)CC4)cc3)c2C)cc(F)c1C(N)=O` [Compound 26a, 2-Fluoro-6-methoxy-4-(4-methyl-5-(4-(4-methylpiperazin-1-yl)phenyl)pyridin-3-yl)benzamide], the figures for the “% enzyme activity” value in experiment [1], in [2] and in experiment [7] were 97.55%, 85.69% and 93.99%, respectively. Moreover, the remaining activity at 1 µM was 104% in experiment [3]; 108% in experiment [4]; 101% in experiment [5]; 91.8% in experiment [8]; 98.3% in [9]. For the same molecule, the % enzyme activity at 1 μM in [6] is 82.5% and 82.3%.
